Structures can show the parent of a compound that is named as a salt. Where two headings read alike, the source gives them in different places.

The assay has as its system PRKACA-PRKAR2A interaction (SmBiT-PRKACA / LgBiT-PRKAR2A), protein kinase A. Further details: NanoLuc complementation counter-screen in cell extract, PRKACA with PRKAR2A, loss of luminescence, detects NanoLuc interference. As to conditions: 0.5 h, 20 µM, inhibitor.
The mark [1] stands for this setting: counter-screen for NanoLuc interference.
Where [2] appears, read: counter-screen for NanoLuc interference, Inh (PKA).

In the case of `Cc1ccc([N+](=O)[O-])cc1S(=O)(=O)N(C)/N=C/c1cnc2ccc(Br)cn12` [UM0141442:01, PIK-75], the “Inh (PKA)” value under setting [1] is recorded as 46.51%.
Take `CCOC(=O)[C@H](CCc1ccccc1)N[C@@H](C)C(=O)N1[C@H](C(=O)O)C[C@@H]2CCC[C@@H]21` [UM0133179:02, Ramipril]: the “Inh (PKA)” value under setting [1] was determined as 0.6461%.
Take `CO/N=C(\C(=O)N[C@@H]1C(=O)N2C(C(=O)O)=C(CSc3nc(=O)c(O)nn3C)CS[C@H]12)c1csc(N)n1` [UM0142345:01, Ceftriaxone Sodium Trihydrate]: under setting [1], the “Inh (PKA)” value amounted to 3.455%.
As to `CNC(=O)c1cc(Oc2ccc(NC(=O)Nc3ccc(Cl)c(C(F)(F)F)c3)c(F)c2)ccn1` [UM0141611:02, Regorafenib], under setting [2], the “Inh (PKA)” value is given as 5.988%.
Take `CC(C)[C@H](C(=O)Nc1ccc(C(=O)NO)cc1)c1ccccc1` [UM0141708:01, AR-42 (OSU-HDAC42)]: under setting [1], the “Inh (PKA)” value is reported as 2.219%.
Still for that read-out and setting: next, `Nc1ccn([C@H]2CC[C@@H](CO)O2)c(=O)n1` [UM0133684:02, Zalcitabine]: -0.04839%; `COc1c(C)cnc(Cn2cnc3c(Cl)nc(N)nc32)c1C` [UM0141685:01, BIIB021]: 2.432%; `C=C(Cc1ccccc1Cl)C(=O)OCC` [UM0142823:01, INF39]: 8.84%.
Consider `CSc1nc2cc(Cl)c(Oc3cccc(Cl)c3Cl)cc2[nH]1` [UM0133345:02, Triclabendazole], for which the “Inh (PKA)” value under setting [1] is recorded as 37.19%.
For `COc1ccnc2[nH]cc(C(=O)C(=O)N3CCN(C(=O)c4ccccc4)C[C@H]3C)c12` [UM0142297:01, BMS-378806], the “Inh (PKA)” value under setting [1] is 0.2509%.
On to `CCCCCCOC(=O)NC(=N)c1ccc(NCc2nc3cc(C(=O)N(CCC(=O)OCC)c4ccccn4)ccc3n2C)cc1` [UM0142023:01, BIBR-1048], for which the “Inh (PKA)” value under setting [2] stood at 4.293%.
Regarding `NC(=O)N1CCC(CC(=O)N2CCC([C@H]3c4ncc(Br)cc4CCc4cc(Cl)cc(Br)c43)CC2)CC1` [UM0141820:01, Lonafarnib], the “Inh (PKA)” value under setting [1] is reported as 11.04%.
Take `COc1cccc2c1C(=O)c1c(O)c3c(c(O)c1C2=O)C[C@@](O)(C(=O)CO)C[C@@H]3O[C@H]1C[C@H](N)[C@H](O[C@@H]2CCCCO2)[C@H](C)O1` [UM0142479:01, Pirarubicin]: the “Inh (PKA)” value under setting [1] is 33.32%.
On to `Nc1ccn([C@@H]2O[C@H](CO)[C@@H](O)C2(F)F)c(=O)n1` [UM0142041:01, Gemcitabine], for which, under setting [2], the “Inh (PKA)” value is -0.03613%.
As to `C/C=C/c1ccc2c(c1)OCO2` [UM0133473:02, Isosafrole], the “Inh (PKA)” value was found to be 2.424%.
With `COc1ccc(C2=N[C@@H](c3ccc(Cl)cc3)[C@@H](c3ccc(Cl)cc3)N2C(=O)N2CCNC(=O)C2)c(OC(C)C)c1` [UM0141768:01, Nutlin-3], the “Inh (PKA)” value under setting [1] stood at 1.968%.
Turning to `Cc1cc(C(=O)NOCCO)c(Nc2ccc(I)cc2F)n(C)c1=O` [UM0127946:02, AZD8330], the “Inh (PKA)” value under setting [1] was 1.892%.
For the compound `COc1cc(F)c(C(C)C)cc1-c1ccc(C(F)(F)F)cc1CN1C(=O)O[C@H](c2cc(C(F)(F)F)cc(C(F)(F)F)c2)[C@@H]1C` [UM0141816:01, Anacetrapib (MK-0859)], the “Inh (PKA)” value under setting [1] is on record as -2.323%.
On to `Nc1cccc(-c2cc3c(Oc4cccc(O)c4)ncnc3[nH]2)c1` [UM0127862:03, TWS119], for which the “Inh (PKA)” value under setting [1] turned out to be 24.46%.
Consider `c1ccc2c(-c3cnn4cc(-c5ccc(N6CCNCC6)cc5)cnc34)ccnc2c1` [UM0141577:01, LDN193189 Hydrochloride], for which the “Inh (PKA)” value under setting [2] is given as 9.112%.
`COc1cc(N2CCC(N)CC2)ccc1Nc1ncc(Cl)c(-c2c[nH]c3ccccc23)n1` [UM0142097:01, AZD-3463]: the “Inh (PKA)” value under setting [1] came out at 51%.
For `CC(=O)Nc1ccc(OC[C@](C)(O)C(=O)Nc2ccc([N+](=O)[O-])c(C(F)(F)F)c2)cc1` [UM0141445:01, Andarine], the “Inh (PKA)” value turned out to be 7.113%.
Turning to `COc1ccc2c(O[C@@H]3C[C@H]4C(=O)N[C@]5(C(=O)NS(=O)(=O)C6CC6)C[C@H]5/C=C\CCCCN(C)C(=O)[C@@H]4C3)cc(-c3nc(C(C)C)cs3)nc2c1C` [UM0141629:01, Simeprevir], the “Inh (PKA)” value came out at 16.13.
For the compound `O=C(/C=C/c1ccc(CN(CCO)CCc2c[nH]c3ccccc23)cc1)NO` [UM0141707:01, LAQ824 (NVP-LAQ824,Dacinostat)], the “Inh (PKA)” value under setting [1] was 3.4%.
`CCCc1ncc(C[n+]2ccccc2C)c(N)n1` [UM0118750:03, Amprolium HCl]: the “Inh (PKA)” value under setting [1] is -0.09679%.
On the same count and under the same terms, as for `CNC(=O)c1cc(Oc2ccc(NC(=O)Nc3cc(C(C)(C)C)nn3-c3ccc4ncccc4c3)c(F)c2)ccn1` [UM0142239:01, DCC-2036 (Rebastinib)], the figure is 12.64%; as for `COc1ncc(-c2ccc3nccc(-c4ccnnc4)c3c2)cc1NS(=O)(=O)c1ccc(F)cc1F` [UM0142087:01, GSK2126458], 7.374%; as for `CCOC(=O)[C@H](CCc1ccccc1)N[C@@H](C)C(=O)N1C(=O)N(C)C[C@H]1C(=O)O` [UM0142047:01, Imidapril HCl], 2.302%.
Still for that read-out and setting: as for `Cc1cnc(Nc2ccc(N3CCN(C)CC3)cc2)nc1Nc1cccc(S(=O)(=O)NC(C)(C)C)c1` [UM0141731:01, TG101209], the figure is 36.26%; as for `O=C1[C@@H]2[C@H]3CC[C@H](C3)[C@@H]2C(=O)N1C[C@@H]1CCCC[C@H]1CN1CCN(c2nsc3ccccc23)CC1` [UM0142271:01, Lurasidone HCl], 12.01%.
On to `CC(C)NC(=O)COc1cccc(-c2nc(Nc3ccc4[nH]ncc4c3)c3ccccc3n2)c1` [UM0141632:01, SLx-2119], for which the “Inh (PKA)” value under setting [1] was 49.23%.
Turning to `Nc1nccc2c1ncn2[C@@H]1O[C@H](CO)[C@@H](O)[C@H]1O` [UM0142748:01, 3-Deazaadenosine], the “Inh (PKA)” value under setting [1] is -15.82%.
In the case of `COc1cc2nc(N3CCN(C(=O)C4COc5ccccc5O4)CC3)nc(N)c2cc1OC` (stereo not drawn) [UM0118850:03, Doxazosin Mesylate], the “Inh (PKA)” value under setting [1] came to 2.176%.
Consider `C[C@]12CC[C@@H]3c4ccc(OC(=O)c5ccccc5)cc4CC[C@H]3[C@@H]1CC[C@@H]2O` [UM0142395:01, Estradiol Benzoate], for which the “Inh (PKA)” value under setting [1] came to 19.47%.
With `CCC(CC)CC1(C(=O)Nc2ccccc2SC(=O)C(C)C)CCCCC1` [UM0141817:01, Dalcetrapib (JTT-705, RO4607381)], the “Inh (PKA)” value under setting [1] came to 16.33%.
In the case of `CCOC(=O)C1=C[C@@H](OC(CC)CC)[C@H](NC(C)=O)[C@@H](N)C1` [UM0133352:02, Oseltamivir phosphate], the “Inh (PKA)” value under setting [2] is -0.5287%.
`CC1=C(/C=C/C(C)=C/C=C/C(C)=C\C(=O)O)C(C)(C)CCC1` [UM0133752:04, Isotretinoin]: under setting [1], the “Inh (PKA)” value came out at 16.35%.
On the same count and under the same terms, next, `Cn1cc(-c2ccc3c(c2)CCN3C(=O)Cc2cccc(C(F)(F)F)c2)c2c(N)ncnc21` [UM0141558:01, GSK2606414]: 15.1%.
`CN1CCC(CNc2ccc3ncc(-c4cccc(OC(F)(F)F)c4)n3n2)CC1` [UM0141756:01, SGI-1776 free base]: under setting [1], the “Inh (PKA)” value came out at 32.18%.
The same measure, in the same setting: as for `CN(CCOc1ccc(CC2SC(=O)NC2=O)cc1)c1ccccn1` (stereo not drawn) [UM0121306:03, Rosiglitazone], the figure is 12.71%; as for `NC(=O)c1cccc2cn(-c3ccc([C@@H]4CCCNC4)cc3)nc12` [UM0141586:01, MK-4827], 5.692%; as for `COc1ccc(CCCOC(Cn2ccnc2)c2ccc(OC)cc2)cc1` (stereo not drawn) [UM0142776:01, SKF 96365 hydrochloride], 35.58%.

The values are drawn from article PMC9995496, “A screen for MeCP2-TBL1 interaction inhibitors using a luminescence-based assay” (Scientific Reports, 2023).
